{
  "source": "paper PMC12564265",
  "about": "“Navigating the Deep Eutectic Solvent Landscape: Experimental and Machine Learning Solubility Explorations of Syringic, p-Coumaric, and Caffeic Acids” (International Journal of Molecular Sciences, 2025)",
  "assay": "Shake-flask solubility with spectrophotometric measurement in aqueous DES mixtures",
  "assay_type": "physicochemical",
  "conditions": "for Increase in the solubility compared to the neat DES: 25 °C",
  "description": "In order to determine the solubility of the three studied phenolic acids in deep eutectic solvents, a very well-established shake-flask method coupled with spectrophotometric measurements was utilized. The initial procedure involved the preparation of various DESs, which was conducted by mixing their HBA and HBD counterparts in a glass vessel and heating the composition until the formation of a transparent, uniform liquid. […] For additional measurements, the DESs were mixed with water in varying proportions, creating aqueous DES systems. Saturated solutions of CAF, SYR, and COU were obtained by adding excess amounts of these compounds to test tubes containing either a neat deep eutectic solvent or its aqueous solution. Such samples were placed in the Orbital Shaker Incubator ES-20/60 from Biosan (Riga, Latvia) and heated for 24 h at 25 °C, 30 °C, 35 °C, and 40 °C (±0.1 °C) with simultaneous mixing at 60 rpm. Before measurements, the samples were filtered using a PTFE syringe filter from Qpore (Dallas, TX, USA) with a 0.22 μm pore size. In order to avoid possible precipitation of the saturated solutions at decreased temperatures, the test tubes, syringes, pipette tips, and filters were kept at a temperature identical to that of the samples. The spectrophotometric measurements required the preparation of calibration curves for the three APIs. This involved the preparation of a stock solution of each compound in methanol, which was later successfully diluted, and the obtained solutions of varying concentrations were measured using an A360 spectrophotometer from AOE Instruments (Shanghai, China). The wavelength range was set to 200-500 nm, and the resolution was 1 nm. The analytical wavelengths were determined to be 324 nm for caffeic acid, 273 nm for syringic acid, and 308 nm for p-coumaric acid. The final regression equations, obtained after averaging three distinct sets of measurements, are collected in Table 2 together with determination coefficients and limits of detection (LOD) and quantification (LOQ) for the calibration curves. The measurements of the samples were conducted with the same spectrophotometer and identical settings. Methanol was used for the dilution of the samples so that they could remain within the linearity range of the method. Complete spectra of the samples were recorded, but for the solubility determination, the absorbance values at a specific analytical wavelength were considered. These values were combined with the corresponding regression equations of the calibration curves and served for the calculation of the concentration of the three phenolic acids in the studied samples. The densities of such samples were also measured, and for this task 1 mL of each sample was weighed to a precision of 0.1 mg using an AS 110 R2.PLUS analytical balance from […] (Radom, Poland). The obtained densities enabled the calculation of mole fractions of CAF, SYR, and COU dissolved in the studied DESs. For each considered system, three distinct measurements were conducted, and the results were averaged.",
  "note": "Values joined by “and” are separate entries in the source; they are usually repeats but may differ in a detail not shown here. Equal entries are not always repeated.",
  "data": [
    {"molecule": "O=C(O)C=Cc1ccc(O)c(O)c1", "note": "[caffeic acid, 3,4-dihydroxycinnamic acid]", "values": [
      {"measurement": "Mole fraction solubility", "setting": "Bet – TEG 1:2 + water, x*DES 0.9, 30°C", "value": "0.0941±0.0005", "unit": "mole fraction"},
      {"measurement": "Mole fraction solubility", "setting": "Bet – TEG 1:2 + water, x*DES 0.9, 35°C", "value": "0.1123±0.0012", "unit": "mole fraction"},
      {"measurement": "Mole fraction solubility", "setting": "Bet – TEG 1:2 + water, x*DES 0.9, 40°C", "value": "0.1364±0.0011", "unit": "mole fraction"},
      {"measurement": "Mole fraction solubility", "setting": "Bet – TEG 1:2, x*DES 1.0 (neat DES), 25°C", "value": "0.0755±0.0010", "unit": "mole fraction"},
      {"measurement": "Mole fraction solubility", "setting": "Bet – TEG 1:2, x*DES 1.0 (neat DES), 30°C", "value": "0.0844±0.0011", "unit": "mole fraction"},
      {"measurement": "Mole fraction solubility", "setting": "Bet – TEG 1:2, x*DES 1.0 (neat DES), 35°C", "value": "0.0989±0.0012", "unit": "mole fraction"},
      {"measurement": "Mole fraction solubility", "setting": "Bet – TEG 1:2, x*DES 1.0 (neat DES), 40°C", "value": "0.1215±0.0012", "unit": "mole fraction"},
      {"measurement": "Increase in the solubility compared to the neat DES", "setting": "Bet-TEG 1:2, x*DES = 0.9 (xwater = 0.1)", "value": 9, "unit": "%"},
      {"measurement": "Mole fraction solubility", "setting": "ChCl – TEG 1:2 + water, x*DES 0.1, 25°C", "value": "0.0098±0.0001", "unit": "mole fraction"},
      {"measurement": "Mole fraction solubility", "setting": "ChCl – TEG 1:2 + water, x*DES 0.1, 30°C", "value": "0.0125±0.0001", "unit": "mole fraction"},
      {"measurement": "Mole fraction solubility", "setting": "ChCl – TEG 1:2 + water, x*DES 0.1, 35°C", "value": "0.0162±0.0001", "unit": "mole fraction"},
      {"measurement": "Mole fraction solubility", "setting": "ChCl – TEG 1:2 + water, x*DES 0.1, 40°C", "value": "0.0211±0.0001", "unit": "mole fraction"},
      {"measurement": "Mole fraction solubility", "setting": "ChCl – TEG 1:2 + water, x*DES 0.2, 25°C", "value": "0.0184±0.0002", "unit": "mole fraction"},
      {"measurement": "Mole fraction solubility", "setting": "ChCl – TEG 1:2 + water, x*DES 0.2, 30°C", "value": "0.0233±0.0002", "unit": "mole fraction"},
      {"measurement": "Mole fraction solubility", "setting": "ChCl – TEG 1:2 + water, x*DES 0.2, 35°C", "value": "0.0321±0.0001", "unit": "mole fraction"},
      {"measurement": "Mole fraction solubility", "setting": "ChCl – TEG 1:2 + water, x*DES 0.2, 40°C", "value": "0.0432±0.0002", "unit": "mole fraction"},
      {"measurement": "Mole fraction solubility", "setting": "ChCl – TEG 1:2 + water, x*DES 0.3, 25°C", "value": "0.0292±0.0002", "unit": "mole fraction"},
      {"measurement": "Mole fraction solubility", "setting": "ChCl – TEG 1:2 + water, x*DES 0.3, 30°C", "value": "0.0366±0.0003", "unit": "mole fraction"},
      {"measurement": "Mole fraction solubility", "setting": "ChCl – TEG 1:2 + water, x*DES 0.3, 35°C", "value": "0.0492±0.0002", "unit": "mole fraction"},
      {"measurement": "Mole fraction solubility", "setting": "ChCl – TEG 1:2 + water, x*DES 0.3, 40°C", "value": "0.0665±0.0004", "unit": "mole fraction"},
      {"measurement": "Mole fraction solubility", "setting": "ChCl – TEG 1:2 + water, x*DES 0.4, 25°C", "value": "0.0381±0.0003", "unit": "mole fraction"},
      {"measurement": "Mole fraction solubility", "setting": "ChCl – TEG 1:2 + water, x*DES 0.4, 30°C", "value": "0.0481±0.0003", "unit": "mole fraction"},
      {"measurement": "Mole fraction solubility", "setting": "ChCl – TEG 1:2 + water, x*DES 0.4, 35°C", "value": "0.0652±0.0003", "unit": "mole fraction"},
      {"measurement": "Mole fraction solubility", "setting": "ChCl – TEG 1:2 + water, x*DES 0.4, 40°C", "value": "0.0893±0.0002", "unit": "mole fraction"},
      {"measurement": "Mole fraction solubility", "setting": "ChCl – TEG 1:2 + water, x*DES 0.5, 25°C", "value": "0.0491±0.0004", "unit": "mole fraction"},
      {"measurement": "Mole fraction solubility", "setting": "ChCl – TEG 1:2 + water, x*DES 0.5, 30°C", "value": "0.0612±0.0003", "unit": "mole fraction"},
      {"measurement": "Mole fraction solubility", "setting": "ChCl – TEG 1:2 + water, x*DES 0.5, 35°C", "value": "0.0841±0.0005", "unit": "mole fraction"},
      {"measurement": "Mole fraction solubility", "setting": "ChCl – TEG 1:2 + water, x*DES 0.5, 40°C", "value": "0.1208±0.0009", "unit": "mole fraction"},
      {"measurement": "Mole fraction solubility", "setting": "ChCl – TEG 1:2 + water, x*DES 0.6, 25°C", "value": "0.0593±0.0005", "unit": "mole fraction"},
      {"measurement": "Mole fraction solubility", "setting": "ChCl – TEG 1:2 + water, x*DES 0.6, 30°C", "value": "0.0754±0.0003", "unit": "mole fraction"},
      {"measurement": "Mole fraction solubility", "setting": "ChCl – TEG 1:2 + water, x*DES 0.6, 35°C", "value": "0.1040±0.0006", "unit": "mole fraction"},
      {"measurement": "Mole fraction solubility", "setting": "ChCl – TEG 1:2 + water, x*DES 0.6, 40°C", "value": "0.1464±0.0014", "unit": "mole fraction"},
      {"measurement": "Mole fraction solubility", "setting": "ChCl – TEG 1:2 + water, x*DES 0.7, 25°C", "value": "0.0715±0.0007", "unit": "mole fraction"},
      {"measurement": "Mole fraction solubility", "setting": "ChCl – TEG 1:2 + water, x*DES 0.7, 30°C", "value": "0.0924±0.0007", "unit": "mole fraction"},
      {"measurement": "Mole fraction solubility", "setting": "ChCl – TEG 1:2 + water, x*DES 0.7, 35°C", "value": "0.1254±0.0014", "unit": "mole fraction"},
      {"measurement": "Mole fraction solubility", "setting": "ChCl – TEG 1:2 + water, x*DES 0.7, 40°C", "value": "0.1718±0.0012", "unit": "mole fraction"},
      {"measurement": "Mole fraction solubility", "setting": "ChCl – TEG 1:2 + water, x*DES 0.8, 25°C", "value": "0.0827±0.0009", "unit": "mole fraction"},
      {"measurement": "Mole fraction solubility", "setting": "ChCl – TEG 1:2 + water, x*DES 0.8, 30°C", "value": "0.1080±0.0013", "unit": "mole fraction"},
      {"measurement": "Mole fraction solubility", "setting": "ChCl – TEG 1:2 + water, x*DES 0.8, 35°C", "value": "0.1418±0.0015", "unit": "mole fraction"},
      {"measurement": "Mole fraction solubility", "setting": "ChCl – TEG 1:2 + water, x*DES 0.8, 40°C", "value": "0.1910±0.0018", "unit": "mole fraction"},
      {"measurement": "Mole fraction solubility", "setting": "ChCl – TEG 1:2 + water, x*DES 0.9, 25°C", "value": "0.0851 mole fraction and 0.0851±0.0005 mole fraction"},
      {"measurement": "Mole fraction solubility", "setting": "ChCl – TEG 1:2 + water, x*DES 0.9, 30°C", "value": "0.1116±0.0017", "unit": "mole fraction"},
      {"measurement": "Mole fraction solubility", "setting": "ChCl – TEG 1:2 + water, x*DES 0.9, 35°C", "value": "0.1479±0.0013", "unit": "mole fraction"},
      {"measurement": "Mole fraction solubility", "setting": "ChCl – TEG 1:2 + water, x*DES 0.9, 40°C", "value": "0.1964±0.0019", "unit": "mole fraction"},
      {"measurement": "Mole fraction solubility", "setting": "ChCl – TEG 1:2, x*DES 1.0 (neat DES), 25°C", "value": "0.0835±0.0010", "unit": "mole fraction"},
      {"measurement": "Mole fraction solubility", "setting": "ChCl – TEG 1:2, x*DES 1.0 (neat DES), 30°C", "value": "0.1032±0.0014", "unit": "mole fraction"},
      {"measurement": "Mole fraction solubility", "setting": "ChCl – TEG 1:2, x*DES 1.0 (neat DES), 35°C", "value": "0.1364±0.0007", "unit": "mole fraction"},
      {"measurement": "Mole fraction solubility", "setting": "ChCl – TEG 1:2, x*DES 1.0 (neat DES), 40°C", "value": "0.1928±0.0017", "unit": "mole fraction"},
      {"measurement": "Increase in the solubility compared to the neat DES", "setting": "ChCl-TEG 1:2, x*DES = 0.9 (xwater = 0.1)", "value": 2, "unit": "%"},
      {"measurement": "Solubility increase between 25 °C and 40 °C", "setting": "neat DES (x*DES = 1.0) involving betaine (Bet-TEG 1:2)", "value": 161, "unit": "%"},
      {"measurement": "Solubility increase between 25 °C and 40 °C", "setting": "neat DES (x*DES = 1.0) with choline chloride (ChCl-TEG 1:2)", "value": 231, "unit": "%"}
    ]}
  ]
}
